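Grown in 96-well plates, cells were treated for 48 hours with each compound at five concentrations. Insufficient inhibition: endpoint recorded as highest concentration tested. TGI: total growth inhibition.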 Where a SMILES comes first, the peptide text is derived from it. [ ]: non-standard residue; d: D form. The star is where a group is joined. Bn2Val = CC(C)[C@@H](C(=O)*)N(Cc1ccccc1)Cc1ccccc1; NH(3,4-diMeO-benzyl) = COc1ccc(CN*)cc1OC; NMeV = CN[C@H](C(=O)O)C(C)C
Tests used:
Experiment in all cases: NCI tumour cell line growth inhibition, 48 h
HT29 colon = test system: HT29 colon
MCF7 breast = test system: MCF7 breast
NCI-H522 lung = test system: NCI-H522 lung
HL-60(TB) leukemia = test system: HL-60(TB) leukemia
CAKI-1 renal = test system: CAKI-1 renal

SMILES	TGI (HT29 colon) [µM]	TGI (MCF7 breast) [µM]	TGI (NCI-H522 lung) [µM]	TGI (HL-60(TB) leukemia) [µM]	TGI (CAKI-1 renal) [µM]
Cc1ccc(S(=O)(=O)Nn2c(O)c(C#N)c(-c3ccc(N(C)C)cc3)c(C#N)c2=O)cc1	> 50	> 50	> 50	> 50	> 50
CCOP(=O)(OCC)C(F)(F)Cc1cnc(C)c2c1COC(C)(C)O2	> 10	> 10	–	> 10	> 10
CC(C)N1[C@@H]2CCCC[C@H]2N(C(C)C)P1(=O)C(=O)/C=C/c1ccccc1	8.03	59.9	3.26	4.84	7.31
Cn1c(=O)n2n(c1=O)[C@@H](c1ccccc1)[C@H]2c1ccccc1	> 100	> 100	–	> 100	> 100
O=C(O)c1ccc(NNC(=O)c2cccc3c(=O)c4ccccc4[nH]c23)cc1	> 100	> 100	96	> 100	> 100
COc1ccc(N=CN(C)C)c(C)c1	44.6	44.3	8.08	4.1	> 100
O=c1c2cc(S(=O)(=O)Nc3c(Cl)cccc3Cl)ccc2ncn1NS(=O)(=O)c1ccc2ccccc2c1	> 62.5	> 62.5	> 62.5	> 62.5	> 62.5
CCc1ccccc1NC(=O)C(=O)CC(=O)c1sc(Nc2ccccc2Cl)nc1C	> 100	45.9	47.5	> 100	> 100
COC(=O)[C@@H]1OC(C)(c2ccccc2)O[C@H]1C(=O)OC	> 100	> 100	> 100	> 100	> 100
O=C(c1cccs1)N(Cc1cccnc1)C(=S)N(Cc1cccnc1)C(=O)c1cccs1	> 100	> 100	> 100	> 100	> 100
CCOP(=O)(OCC)C(Nc1ccc(C(=O)O)cc1)c1ccc(C(Nc2ccc(C(=O)O)cc2)P(=O)(OCC)OCC)cc1 (stereo not drawn)	> 100	–	> 100	–	> 100
CC(C)NC(=O)OCc1c(COC(=O)NC(C)C)c(-c2ccc[n+](COC(=O)C(C)(C)C)c2)n2c1CCC2	> 100	> 100	> 81.5	> 94.9	99.7
CC1(O)Oc2ccc3ccccc3c2C=C1C(N)=O (stereo not drawn)	–	> 100	–	> 100	> 100
COc1ccc(C2=NN(C(=O)c3cccnc3)C(O)(c3cc(F)c(Cl)cc3Cl)C2)cc1OC (stereo not drawn)	34.9	–	34.9	40.9	> 100
c1cc(C[S+]2CCCC2)sc1C[S+]1CCCC1	> 100	> 100	> 100	> 100	> 100
O=C1COCCN1C(=O)c1ccccc1Cl	> 100	> 100	> 100	> 100	> 100
CCn1c2ccccc2c2cc(NC(=O)c3c(NCCNCCO)nc(=O)[nH]c3C)ccc21	> 100	> 100	> 100	> 100	> 100
CC[C@H]1C=CCC[C@@]2(C[C@@H]3CC[C@H]4[C@H](C(=O)OCCCCCCCCCCCCCCCC(=O)N(CCCN)C[C@@H](O)CCN)[C@]5(CCC[C@@H](C)O5)NC(=[N+]34)N2)O1	1.48	1.51	2.72	1.35	1.87
CCOC(=O)c1ccc(N=c2oc3ccc(OC)cc3cc2-c2nc3ccccc3[nH]2)cc1	> 100	> 100	> 100	> 100	> 100
COC(=O)[C@H](COC(=O)/C=C/c1ccc(OC(C)=O)c(OC(C)=O)c1)NC(=O)/C=C/c1ccc(OC(C)=O)c(OC(C)=O)c1	54	> 100	–	> 100	35.1
CN(C)c1nc(=NCc2cccnc2)ss1	> 10	–	–	> 10	> 10
CCO/C=C(\C(=O)OC)S(=O)(=O)c1ccc(C)cc1	> 100	> 100	> 100	> 100	–

SMILES	TGI (HT29 colon) [µM]	TGI (MCF7 breast) [µM]	TGI (NCI-H522 lung) [µM]	TGI (HL-60(TB) leukemia) [µM]	TGI (CAKI-1 renal) [µM]
CCN(CC)C(=S)SS(=O)(=O)c1ccc(NC(C)=O)cc1	70.8	–	0.84	76.4	41.8
O=C(CC(=O)N1N=C(N(c2ccccc2)c2ccccc2)CC1c1ccccc1)Nc1ccccc1 (stereo not drawn)	> 100	> 100	> 100	> 100	> 100
N#CC1(C#N)C(c2ccccc2)C=CC(c2ccc([N+](=O)[O-])cc2)C1(C#N)C#N (stereo not drawn)	> 38.5	21.1	9.48	0.574	13.1
COc1ccc(C(SCC(N)C(=O)O)(c2ccc(OC)cc2)c2ccc(OC)cc2)cc1 (stereo not drawn)	16.7	16.5	39.8	> 31.6	> 31.6
CCOC(=O)c1ccc(Nc2nc3cc(C(F)(F)F)ccc3nc2C(=O)OCC)cc1	> 100	> 100	> 100	> 100	49.6
COc1cc2c(cc1OC)C(=O)/C(=C/c1ccc([N+](=O)[O-])cc1)CC2	> 10	> 10	–	> 10	> 10
OC(CC(O)(C(F)(F)F)C(F)(F)F)C(O)c1ccco1 (stereo not drawn)	> 10	> 10	> 10	> 10	> 10
COC(=O)c1ccccc1C1CN=NC12Cc1cc(C)cc(C)c1C2=O (stereo not drawn)	> 100	> 100	90	51.7	> 100
O=C(c1ccccc1)C1C[C@H]2CO[C@H](c3ccccc3)N2C1=O (stereo partly drawn)	> 100	> 100	> 100	–	> 100
COc1ccc(-n2sc3ncc([N+](=O)[O-])cc3c2=O)cc1	> 100	> 100	> 100	> 100	–
Cc1ccc(C2SCC(=O)N2NC(=O)c2ccncc2)s1 (stereo not drawn)	> 100	> 100	> 100	–	> 100
COC(=O)/C=C1/OC(c2ccc(C)cc2)=C(Cl)C1=O	32.6	34.9	23.2	10.2	29.7
COc1cccc(Nc2nc(N)nc(N)c2N=O)c1	75.3	> 100	29.5	79	55.4
CCOC(=O)c1cc2cc(C)cc(C(=O)c3ccc([N+](=O)[O-])cc3)c2[nH]1	> 100	> 100	> 100	> 100	> 100
COc1ccc(CNC(=O)[C@@H]2CCCN2C(=O)[C@@H]2CCCN2C(=O)[C@H](C(C)C)N(C)C(=O)[C@@H](NC(=O)[C@H](C(C)C)N(Cc2ccccc2)Cc2ccccc2)C(C)C)cc1OC (Bn2Val-V[NMeV]PP-{NH(3,4-diMeO-benzyl)})	20.7	–	20.6	6.17	38.1
O=[N+]([O-])c1ccc(C(=Nc2ccccc2)SSC(=Nc2ccccc2)c2ccc([N+](=O)[O-])o2)o1	4.1	–	0.755	8.61	4.67
Fc1ccc2c3c([nH]c2c1)CCNC3	> 100	> 100	–	> 100	–
O=c1[nH]c2cc([N+](=O)[O-])ccc2nc1/C=C(\O)c1ccc(Cl)cc1	32.7	26.2	–	44.1	33.1
Cn1c(=O)c2c(nc3n(C)c(=O)c4ccccc4n23)n(C)c1=O	> 100	> 100	> 100	> 100	> 100
O=C1C=C2CC[C@H]3[C@@H]4CC[C@H](OC(=O)c5cccc6cc7ccccc7nc56)[C@H]4CC[C@@H]3[C@H]2CC1	> 100	> 100	69.2	> 100	–
O=C(OCc1ccccc1)N1CCCc2c(n(S(=O)(=O)c3ccccc3)c3ccccc23)C1	> 100	> 100	> 100	> 100	> 100
COc1cccc(C2c3cc4c(cc3OC(N3CCCCC3)C2C)OCO4)c1OC (stereo not drawn)	19.8	52.1	29	–	11

SMILES	TGI (HT29 colon) [µM]	TGI (MCF7 breast) [µM]	TGI (NCI-H522 lung) [µM]	TGI (HL-60(TB) leukemia) [µM]	TGI (CAKI-1 renal) [µM]
CN(C)Cc1cc(/C=C/C(=O)c2ccc(Cl)c(Cl)c2)cc(CN(C)C)c1O	28.6	31.7	–	> 100	21.1
O=S(=O)(O)C(Cc1nc2ccccc2[nH]1)S(=O)(=O)OCCC1S(=O)(=O)OCCOS1(=O)=O (stereo not drawn)	> 100	> 100	> 100	> 100	> 100
COC(=O)c1ccc(NCC2=CC(=O)C=CC2=O)cc1	38.8	30.8	3.11	5.5	7.68
C#CCCOC(=O)c1ccccc1OC(C)=O	–	> 100	> 100	–	> 100
CCOC(=O)c1cc(C#N)[nH]c1-c1ccsc1	95.1	> 100	90.2	41.5	> 100
O=C(/C=C/c1ccc2c(c1)OCO2)CC(=O)/C=C/c1ccc2c(c1)OCO2	> 100	> 100	> 100	> 100	> 100
Cc1cn(C2CC(NC(=NCC3OC(n4cnc5c(N)ncnc54)CC3O)NC#N)C(CO)O2)c(=O)[nH]c1=O (stereo not drawn)	> 100	> 100	> 100	> 100	> 100
CC(=O)CCC[C@H](C)[C@@H](O)[C@@H]1O[C@H]([C@@]2(C)CCC(=O)O2)C[C@H]1C(=O)O	> 100	> 100	> 100	–	> 100
O=C1OC(CS(=O)(=O)c2ccccc2)CC1O (stereo not drawn)	> 100	> 100	> 100	–	> 100
Oc1cccc2c1[nH]c1c(C3=C[C@@]4(O)CC/C=C\CCCCN5CC[C@@H]3[C@]3(CC6/C=C\CCCCN6[C@H]34)C5)nccc12 (stereo partly drawn)	2.25	1.77	2.4	2.59	4.43
CC1=C[C@@H]2[C@@H](CC(CO)=C[C@H]3[C@@H]4C(C)(C)[C@]4(OCC(C)C)[C@H](OCC(C)C)[C@@H](C)[C@]23O)C1=O	2.87	6.89	4.58	> 5.52	3.69
NC(=O)OCc1c(-c2ccccc2)nn(-c2ccccc2)c1COC(N)=O	> 100	> 100	> 100	–	> 100
CC1c2cc(c3c(c2O)CN([C@@H](C)C2CCCCC2)CO3)C(C)c2cc(c3c(c2O)CN([C@@H](C)C2CCCCC2)CO3)C(C)c2cc(c3c(c2O)CN([C@@H](C)C2CCCCC2)CO3)C(C)c2cc1c1c(c2O)CN([C@@H](C)C2CCCCC2)CO1 (stereo partly drawn)	1.26	–	1.58	5.59	2.95
COCN1C(=O)[C@@H]2CCCN2C(=O)c2ccc([N+](=O)[O-])cc21	> 100	> 100	> 100	> 100	> 100
CN1CCc2cc(N)cc3c2C1Cc1ccc2c(c1-3)OCO2 (stereo not drawn)	> 100	> 100	53.1	> 75.7	> 100
COC(=O)C1(C(=O)OC)CC2=C(S(=O)(=O)c3ccccc3)C[C@H](C#N)[C@H]2C1	> 100	> 100	> 100	> 100	> 100
C=C(CN)CO[Si](C)(C)C(C)(C)C	> 100	> 100	> 100	> 100	> 100
CC1=CC(=O)/C(=C/n2c(=S)[nH]c3ccc([N+](=O)[O-])cc32)C(=O)O1	> 100	> 100	> 100	4.93	–
c1cc(NC2=NCCO2)c2c(c1)OCO2	> 100	> 100	> 100	> 100	> 100
O=c1c(=[n+]2ccc(=C([O-])c3ccccc3)cc2)/c(=N/S(=O)(=O)c2ccccc2)c(=O)c2ccccc12	28	25.7	18.3	4.95	5.19
CC1=C2CN(C(=O)OCC(C)C)CCC2C2=C(C(=O)c3ccccc3C2=O)C1C (stereo not drawn)	> 10	> 10	–	> 10	> 10

From PubChem BioAssay (NCI)
